Here are results for eleven compounds from PubChem BioAssay (NCI).

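Test compounds were applied to cells in 96-well plates for 48 hours at 5 doses. GI50 = concentration required for 50% inhibition of growth. TGI is the concentration that stops growth completely.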

Some test systems named below: 786-0 renal; HCC-2998 colon; HCT-15 colon; K-562 leukemia; KM12 colon; NCI-H23 lung; SF-268 CNS; SF-295 CNS; SK-MEL-28 melanoma; UACC-257 melanoma.
Holding throughout (assay): growth of human tumour cells (NCI), 48 h

In the case of `Cc1cc(-c2ccccc2)nc(Nc2nc3ccccc3o2)n1`, the TGI in the assay on 786-0 renal, with HCC-2998 colon, with HCT-15 colon, in the assay with K-562 leukemia, with KM12 colon and in the assay on NCI-H23 lung was above 100 µM in each case. Moreover, the TGI in the assay on SF-268 CNS, in the assay on SF-295 CNS, in the assay with SK-MEL-28 melanoma and in the assay on UACC-257 melanoma was above 100 µM each time.

As for `Cc1ccc(NC(=O)C2C(=O)N(c3ccc(C)c(C)c3)C(=O)/C2=N\NC(N)=O)cc1C` (stereo unspecified), the TGI in the assay on 786-0 renal, with HCC-2998 colon, in the assay on HCT-15 colon, in the assay with K-562 leukemia, with KM12 colon and in the assay on NCI-H23 lung was above 100 µM each time. In addition, the TGI with SF-268 CNS, with SF-295 CNS, in the assay with SK-MEL-28 melanoma and in the assay on UACC-257 melanoma was above 100 µM each time.

With `COC(=O)C1OC2(CCCC3CC32)O[C@H]1C(=O)OC` (stereo partly specified), the TGI in the assay with 786-0 renal, with HCC-2998 colon, with HCT-15 colon, with K-562 leukemia, with KM12 colon and in the assay with NCI-H23 lung was above 100 µM each time. In addition, the TGI in the assay with SF-268 CNS, in the assay on SF-295 CNS, in the assay on SK-MEL-28 melanoma and with UACC-257 melanoma was above 100 µM each time.

As for `ON(Cc1ccccc1)C(=S)c1ccccc1`, the TGI in the assay with 786-0 renal is above 100 µM; in the assay with HCC-2998 colon it was 98.1 µM; in the assay with HCT-15 colon, above 100 µM; with K-562 leukemia, above 100 µM; in the assay on KM12 colon it was above 63.6 µM; in the assay with NCI-H23 lung, 47.1 µM. Also, the TGI with SF-268 CNS was above 100 µM; with SF-295 CNS it was above 45.3 µM; in the assay with SK-MEL-28 melanoma it was above 100 µM; in the assay with UACC-257 melanoma it was 39.4 µM.

Consider `CN=C(NC(=S)N(C)C)N(C)C`, for which the TGI with 786-0 renal, in the assay with HCC-2998 colon, with HCT-15 colon, in the assay with K-562 leukemia, in the assay with KM12 colon and in the assay on NCI-H23 lung was above 100 µM throughout. The TGI in the assay with SF-268 CNS, with SF-295 CNS, in the assay on SK-MEL-28 melanoma and in the assay on UACC-257 melanoma was above 100 µM each time.

Consider `O=C1C2=C(c3ccccc31)C(c1ccccc1)N1C(=O)CSC1=N2` (stereo unspecified), for which the TGI in the assay on 786-0 renal was above 100 µM; in the assay with HCC-2998 colon it was above 100 µM; in the assay with HCT-15 colon, 98.1 µM; in the assay on K-562 leukemia it was above 100 µM; with KM12 colon it was above 100 µM; in the assay on NCI-H23 lung, above 100 µM. The TGI in the assay with SF-268 CNS, with SF-295 CNS, in the assay with SK-MEL-28 melanoma and with UACC-257 melanoma was above 100 µM in each case.

`CC(C)N1CCN(Cc2ccc3c(NNC(=O)c4ccccc4)nc4cc(F)ccc4n23)CC1`: the GI50 was 0.323 µM with 786-0 renal; 0.699 µM in the assay on HCC-2998 colon; 0.0563 µM in the assay with HCT-15 colon; 0.379 µM in the assay with K-562 leukemia; 0.397 µM in the assay with KM12 colon; 0.93 µM in the assay with NCI-H23 lung. In addition, the GI50 in the assay on SF-268 CNS is 0.355 µM; with SF-295 CNS, 0.277 µM; in the assay on SK-MEL-28 melanoma, 0.599 µM; in the assay with UACC-257 melanoma, 0.81 µM. The TGI in the assay with 786-0 renal came out at 6.01 µM; with HCC-2998 colon it was 6.45 µM; in the assay on HCT-15 colon it was 3.91 µM; with K-562 leukemia it was 3.87 µM; in the assay with KM12 colon it was 11 µM; in the assay with NCI-H23 lung it was 8.94 µM. Further, the TGI was 12.7 µM in the assay on SF-268 CNS, 1.69 µM with SF-295 CNS, 4.58 µM in the assay on SK-MEL-28 melanoma and 11.9 µM in the assay with UACC-257 melanoma.

Turning to `COc1ccc2c(C3(c4cn(C)c5cc(OC)ccc45)C(=O)Nc4ccc(Cl)cc43)cn(C)c2c1`, the GI50 in the assay with 786-0 renal is 4.12 µM; with HCC-2998 colon it was 6.35 µM; in the assay with HCT-15 colon it was 4.5 µM; in the assay with K-562 leukemia it was 3.38 µM; with KM12 colon, 3.82 µM; with NCI-H23 lung it was 3.99 µM. The GI50 with SF-268 CNS was 3.67 µM; with SF-295 CNS, 5.16 µM; in the assay on SK-MEL-28 melanoma it was 4.71 µM; with UACC-257 melanoma, 2.29 µM. For the same compound, the TGI with 786-0 renal is 70 µM; with HCC-2998 colon, above 100 µM; with HCT-15 colon, above 100 µM; with K-562 leukemia, above 100 µM; with KM12 colon, 21.1 µM; with NCI-H23 lung it was above 100 µM. Moreover, the TGI was above 100 µM in the assay on SF-268 CNS, above 100 µM in the assay with SF-295 CNS, above 100 µM in the assay on SK-MEL-28 melanoma and 8.56 µM in the assay with UACC-257 melanoma.

Regarding `O=C(O)C1CC2(C1)CC(C(=O)O)C2` (stereo unspecified), the TGI in the assay on 786-0 renal, in the assay with HCC-2998 colon, in the assay with HCT-15 colon, in the assay with K-562 leukemia, in the assay with KM12 colon and in the assay with NCI-H23 lung was above 100 µM each time. The TGI in the assay on SF-295 CNS, in the assay on SK-MEL-28 melanoma and in the assay on UACC-257 melanoma was above 100 µM each time.

Regarding `CC(=O)c1c(CN(C)c2ccccc2)n([O-])c2ccccc2[n+]1=O`, the GI50 in the assay with 786-0 renal was 55 µM; in the assay on HCC-2998 colon, 30.9 µM; in the assay with HCT-15 colon, 31.3 µM; with K-562 leukemia, 28.6 µM; in the assay with KM12 colon, 29.6 µM; in the assay on NCI-H23 lung it was 16.4 µM. Besides, the GI50 is 24.1 µM in the assay with SF-268 CNS, 38.7 µM in the assay on SK-MEL-28 melanoma and 89.2 µM in the assay with UACC-257 melanoma. In addition, the TGI in the assay on 786-0 renal is above 100 µM; in the assay on HCC-2998 colon, above 100 µM; in the assay on HCT-15 colon it was above 100 µM; in the assay with K-562 leukemia, above 100 µM; in the assay with KM12 colon, above 100 µM; with NCI-H23 lung, 35.3 µM. Moreover, the figures for the TGI in the assay with SF-268 CNS, with SK-MEL-28 melanoma and with UACC-257 melanoma were 79.9 µM, above 100 µM and above 100 µM, respectively.

For the compound `S=c1nc(COc2ccc(Cl)cc2Cl)[nH][nH]1`, the TGI in the assay with 786-0 renal, in the assay with HCC-2998 colon, in the assay with HCT-15 colon, with K-562 leukemia, with NCI-H23 lung and in the assay with SF-268 CNS was above 100 µM each time. Besides, the TGI in the assay on SF-295 CNS, in the assay on SK-MEL-28 melanoma and in the assay on UACC-257 melanoma was above 100 µM throughout.
